Reference: US6462055B2, “Alpha-methylbenzyl-containing thiourea inhibitors of herpes viruses containing a phenylenediamine group” (Wyeth, priority 1998, dated 2002)
In brackets after ≈: the same amount, converted by molar mass.

Key:
[1] = test system: VZV strain Ellen; test: VZV Antiviral (ELISA) Assay in human foreskin fibroblast cells; assay type: cell-based, varicella-zoster virus; settings: for IC50 / inhibition at 10 µg/mL: Human alphaherpesvirus 3, Fibroblast; for IC50: read-out: IC50 (ug/ml) VZV; for inhibition at 10 µg/mL: read-out: % inhibition 10 ug/ml VZV, 10 ug/ml
Procedure, shortened: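 First, fibroblasts are infected at multiplicity below 0.1 and kept overnight. The harvested cell mixture then goes onto compound-containing wells for three days at 37° C. Finally, cells are fixed and viral gpII is measured by fluorogenic ELISA.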

[2] = test system: HCMV recombinant mutant virus (RV145); test: microbe, parasite or virus in culture; assay type: cell-based, human cytomegalovirus; settings: for IC50: Human betaherpesvirus 5, read-out: IC50 ug/ml HCMV, HCMV
Source text: Microtiter plate assay. Ninety-six well plate cultures of human foreskin fibroblasts are infected in the presence of inhibitor compound with a HCMV recombinant mutant virus whose genome contains the prokaryotic beta-glucuronidase gene (Jefferson, R. A., S. M. Burgess, and D. Hirsh. 1986. Beta-glucuronidase from Escherichia coli as a gene fusion marker. Proc. Natl. Acad. Sci. USA 83:8447-8451) whose expression is controlled by a viral promoter. An example of such a virus is RV145 (Jones, T. R., V. P. Muzithras, and Y. Gluzman. 1991. Replacement mutagenesis of the human cytomegalovirus genome: US10 and US11 gene products are nonessential. J. Virol. 65:5860-5872). Since it is under the control of a viral promoter, beta-glucuronidase expression is an indirect indicator of growth and replication of HCMV in this assay. At 96 hours post-infection, the infected cell lysates are prepared (using 50 mM sodium phosphate [pH7.0]containing 0.1% Triton X-100 and 0.1% sarkosyl) and assayed for beta-glucuronidase activity using a substrate for the enzyme which when cleaved yields either a product which can be measured […] in a spectrophotometer or fluorescently in a microfluorimeter. Examples of such substrates are p-nitrophenyl-beta-D-glucuronide and methylumbelliferylglucuronide, respectively. The presence of an antiviral compound is indicated by the reduced expression of the HCMV genome resident beta-glucuronidase gene, compared to the absence of inhibitor. […] Data from this assay generated using varying amounts of inhibitor compound is also used to estimate the IC50 of an inhibitor compound.

[3] = test system: HSV-1; test: HSV Antiviral (ELISA) Assay in Vero cells; assay type: cell-based, herpes simplex virus type 1; settings: Human alphaherpesvirus 1; HSV-1, Vero cells; read-out: IC50 (ug/ml) HSV
Protocol: Vero cells (ATCC #CCL-81) are plated on 96-well tissue culture plates at 3.5×10^4 cells per 100 μl tissue culture DMEM (Dulbeccos modified Eagle media) supplemented with 2% fetal bovine serum (FBS) in each well. After overnight incubation @ 37° C. (in 5% CO2) and 30 minutes prior to infection with HSV-1 (multiplicity of infection equal to 0.006), cells are either untreated, or treated with test compound (multiple concentrations) or reference standard drug control. After approximately 24 hours post-infection incubation @ 37° C. (in 5% CO2), cells are fixed for ELISA assay. The primary antibody is murine anti-HSV glycoprotein D monoclonal primary antibody and the secondary antibody is goat anti-mouse IgG linked to β-galactosidase. Thus the extent of viral replication is determined by assessing β-galactosidase activity by quantifying the generation of the 4-methyl umbelliferone fluorescent cleavage product after addition of the methyl umbelliferyl-β-D-galactoside (Sigma #M1633) substrate on a microfluorimeter (365 nm for excitation and 450 nm for emission). Antiviral activity (IC50) of the test compound is determined by comparing the flourescence obtained in absence of compound to that obtained in the presence of compound.

Structure (SMILES): COC(=O)c1cccc(C(=O)Nc2ccc(NC(=S)Nc3cc(Cl)c(OC)cc3OC)cc2)c1 [Example 208]
- IC50 (ug/ml) VZV [1]: >10 µg/mL
- % inhibition 10 ug/ml VZV [1]: 25%
- IC50 ug/ml HCMV [2]: >10 µg/mL

Structure (SMILES): Nc1cccc(NC(=S)Nc2ccc(NC(=O)c3ccccc3F)cc2)c1 [Example 434]
- IC50 (ug/ml) VZV [1]: >10 µg/mL
- % inhibition 10 ug/ml VZV [1]: 0%
- IC50 ug/ml HCMV [2]: 5 µg/mL (≈ 13.1 µM)

Structure (SMILES): O=C(Nc1ccc(NC(=S)Nc2cccc(CO)c2)cc1)c1ccccc1F [Example 476]
- IC50 (ug/ml) VZV [1]: >10 µg/mL
- % inhibition 10 ug/ml VZV [1]: 21%
- IC50 ug/ml HCMV [2]: >10 µg/mL

Structure (SMILES): O=C(Nc1ccc(NC(=S)Nc2cc(N3CCCC3)cc(C(F)(F)F)c2)cc1)c1ccccc1F [Example 566]
- IC50 (ug/ml) VZV [1]: 2 µg/mL (≈ 3.98 µM)
- IC50 ug/ml HCMV [2]: >0.5 µg/mL

Structure (SMILES): CN(C)c1cc(NC(=S)Nc2ccc(NC(=O)c3ccccc3F)cc2)cc(C(F)(F)F)c1 [Example 567]
- IC50 [1]: 2 µg/mL (≈ 4.2 µM)
- IC50 [2]: > 0.5 µg/mL

Structure (SMILES): O=C(Nc1ccc(NC(=S)Nc2cc(N3CCOCC3)cc(C(F)(F)F)c2)cc1)c1ccccc1F [Example 568]
- IC50 (ug/ml) VZV [1]: 2.3 µg/mL (≈ 4.44 µM)
- IC50 ug/ml HCMV [2]: >0.5 µg/mL

Structure (SMILES): CN1CCN(c2cc(NC(=S)Nc3ccc(NC(=O)c4ccccc4F)cc3)cc(C(F)(F)F)c2)CC1 [Example 569]
- IC50 (ug/ml) VZV [1]: 3 µg/mL (≈ 5.64 µM)
- IC50 ug/ml HCMV [2]: >0.5 µg/mL

Structure (SMILES): O=C(Nc1ccc(NC(=S)NCCc2ccccc2)cc1)c1ccccc1F [Example 576]
- IC50 [1]: 8 µg/mL (≈ 20.3 µM)
- IC50 [2]: > 0.5 µg/mL

Structure (SMILES): CN(C)c1ccc(CNC(=S)Nc2ccc(NC(=O)c3ccccc3F)cc2)cc1C(F)(F)F [Example 610]
- IC50 (ug/ml) VZV [1]: >10 µg/mL
- IC50 ug/ml HCMV [2]: >0.5 µg/mL

Structure (SMILES): O=C(Nc1ccc(NC(=S)NCCOc2cc(Cl)cc(Cl)c2)cc1)c1ccccc1F [Example 664]
- IC50 ug/ml HCMV [2]: >0.5 µg/mL

Structure (SMILES): O=C(Nc1ccc(NC(=S)NCCOc2cccc(Cl)c2)cc1)c1ccccc1F [Example 666]
- IC50 ug/ml HCMV [2]: >0.5 µg/mL

Structure (SMILES): CC(NC(=S)Nc1ccc(NC(=O)c2cccc(Cl)c2)cc1)c1ccc(F)cc1 (stereo not drawn) [Example 761]
- IC50 (ug/ml) VZV [1]: >10 µg/mL
- IC50 ug/ml HCMV [2]: 1.5 µg/mL (≈ 3.51 µM)

Structure (SMILES): CC(NC(=S)Nc1ccc(NC(=O)c2ccc(N(C)C)cc2)cc1)c1ccc(F)cc1 (stereo not drawn) [Example 765]
- IC50 ug/ml HCMV [2]: 2.3 µg/mL (≈ 5.27 µM)

Structure (SMILES): COc1ccc(C(=O)Nc2ccc(NC(=S)Nc3cc(Br)c(OC)cc3OC)cc2)cc1 [Example 830, N-{4-[3-(5-Bromo-2,4-dimethoxy-phenyl)-thioureido]-phenyl}-4-methoxy-benzamide]
- inhibition at 10 µg/mL [1]: 16%
- IC50 [1]: > 10 µg/mL
- IC50 [2]: > 10 µg/mL

Structure (SMILES): O=C(Nc1ccc(NC(=S)Nc2ccc(Br)c(Cl)c2)cc1)c1ccccc1F [Example 915, N-{4-[3-(4-Bromo-3-chloro-phenyl)-thioureido]-phenyl}-2-fluoro-benzamide]
- inhibition at 10 µg/mL [1]: 29%
- IC50 [1]: > 10 µg/mL
- IC50 [2]: > 10 µg/mL

Structure (SMILES): NC(=O)c1cccc(NC(=S)Nc2ccc(NC(=O)c3ccccc3F)cc2)c1 [Example 952, N-[4-[[[[3-(Aminocarbonyl)phenyl]amino]thioxomethyl]amino]phenyl]-2-fluoro-benzamide]
- inhibition at 10 µg/mL [1]: 22%
- IC50 [1]: > 10 µg/mL
- IC50 [2]: > 10 µg/mL

Structure (SMILES): O=C(Nc1ccc(NC(=S)Nc2cccc(OC(F)(F)F)c2)cc1)c1ccccc1F [Example 961, 2-Fluoro-N-{4-[3-(3-trifluoromethoxy-phenyl)-thioureido]-phenyl}-benzamide]
- inhibition at 10 µg/mL [1]: 53%
- IC50 [1]: > 10 µg/mL
- IC50 [2]: > 10 µg/mL

Structure (SMILES): O=C(Nc1ccc(NC(=S)Nc2cccc(S(=O)(=O)CCO)c2)cc1)c1ccccc1F [Example 969, 2-Fluoro-N-(4-{3-[3-(2-hydroxy-ethanesulfonyl)-phenyl]-thioureido}-phenyl)-benzamide]
- inhibition at 10 µg/mL [1]: 19%
- IC50 [1]: > 10 µg/mL
- IC50 [2]: > 10 µg/mL

Structure (SMILES): CC(NC(=S)Nc1ccc(NC(=O)c2ccccc2C(F)(F)F)cc1)c1ccc(F)cc1 (stereo not drawn) [Example 992, N-(4-{3-[1-(4-Fluoro-phenyl)-ethyl]-thioureido}-phenyl)-2-trifluoromethyl-benzamide]
- IC50 [1]: 1.2 µg/mL (≈ 2.6 µM)
- IC50 [2]: 4 µg/mL (≈ 8.67 µM)

Structure (SMILES): Nc1ccc(C(F)(F)F)cc1NC(=S)Nc1ccc(NC(=O)c2ccccc2F)cc1 [Example 999, N-{4-[3-(2-Amino-5-trifluoromethyl-phenyl)-thioureido]-phenyl}-2-fluoro-benzamide]
- IC50 [1]: 9.4 µg/mL (≈ 21 µM)
- IC50 [2]: 4 µg/mL (≈ 8.92 µM)

Structure (SMILES): C[C@@H](NC(=S)Nc1ccc(NC(=O)c2ccccc2F)cc1)c1ccc(Br)cc1 [Example 1005, N-(4-{3-[(1R)-1-(4-Bromo-phenyl)-ethyl]-thioureido}-phenyl)-2-fluoro-benzamide]
- IC50 [1]: 4.3 µg/mL (≈ 9.1 µM)
- IC50 [3]: 2.9 µg/mL (≈ 6.14 µM)

Structure (SMILES): Nc1ccc(F)cc1NC(=S)Nc1ccc(NC(=O)c2ccccc2F)cc1 [Example 1007, N-{4-[3-(2-Amino-5-fluoro-phenyl)-thioureido]-phenyl}-2-fluoro-benzamide]
- IC50 [1]: > 10 µg/mL
- IC50 [2]: > 10 µg/mL

Structure (SMILES): CC(NC(=S)Nc1ccc(NC(=O)c2ccccc2F)cc1)c1ccc(S(=O)(=O)N(C)C)cc1 (stereo not drawn) [Example 1008, N-(4-{3-[1-(4-Dimethylsulfamoyl-phenyl)-ethyl]-thioureido}-phenyl)-2-fluoro-benzamide]
- IC50 [1]: > 10 µg/mL
- IC50 [3]: > 10 µg/mL

Structure (SMILES): Cc1ccc([C@H](C)NC(=S)Nc2ccc(NC(=O)c3ccccc3F)cc2)cc1 [Example 1011, 2-Fluoro-N-{4-[3-((1S)-1-p-tolyl-ethyl)-thioureido]-phenyl}-benzamide]
- IC50 [1]: 0.55 µg/mL (≈ 1.35 µM)
- IC50 [3]: > 10 µg/mL

Structure (SMILES): Cc1ccc([C@@H](C)NC(=S)Nc2ccc(NC(=O)c3ccccc3F)cc2)cc1 [Example 1012, 2-Fluoro-N-{4-[3-((1R)-1-p-tolyl-ethyl)-thioureido]-phenyl}-benzamide]
- IC50 [1]: > 7.5 µg/mL
- IC50 [3]: > 10 µg/mL

Structure (SMILES): C[C@H](NC(=S)Nc1ccc(NC(=O)c2ccccc2F)cc1)c1ccccc1 [Example 1013, 2-Fluoro-N-{4-[3-((1S)-1-phenyl-ethyl)-thioureido]-phenyl}-benzamide]
- IC50 [1]: 0.27 µg/mL (≈ 0.686 µM)
- IC50 [3]: > 10 µg/mL

Structure (SMILES): C[C@@H](NC(=S)Nc1ccc(NC(=O)c2ccccc2F)cc1)c1ccc(Cl)cc1 [Example 1014, N-(4-{3-[(1R)-1-(4-Chloro-phenyl)-ethyl]-thioureido}-phenyl)-2-fluoro-benzamide]
- IC50 [1]: > 7.5 µg/mL
- IC50 [3]: > 10 µg/mL

Structure (SMILES): C[C@H](NC(=S)Nc1ccc(NC(=O)c2ccccc2F)cc1)c1ccc(Cl)cc1 [Example 1015, N-(4-{3-[(1S)-1-(4-Chloro-phenyl)-ethyl]-thioureido}-phenyl)-2-fluorobenzamide]
- IC50 [1]: 0.03 µg/mL (≈ 0.0701 µM)
- IC50 [3]: > 10 µg/mL

Structure (SMILES): C[C@@H](NC(=S)Nc1ccc(NC(=O)c2ccccc2F)cc1)c1ccccc1 [Example 1016, 2-Fluoro-N-{4-[3-((1R)-1-phenyl-ethyl)-thioureido]-phenyl}-benzamide]
- IC50 [1]: > 7.5 µg/mL
- IC50 [3]: > 10 µg/mL

Structure (SMILES): CC(NC(=S)Nc1ccc(NC(=O)c2cccc(C#N)c2)cc1)c1ccc(F)cc1 (stereo not drawn) [Example 1020, 3-Cyano-N-(4-{3-[1-(4-fluoro-phenyl)-ethyl]-thioureido}-phenyl)-benzamide]
- IC50 [1]: 6.3 µg/mL (≈ 15.1 µM)
- IC50 [3]: > 10 µg/mL

Structure (SMILES): CC(NC(=S)Nc1ccc(NC(=O)c2ccc(C#N)cc2)cc1)c1ccc(F)cc1 (stereo not drawn) [Example 1022, 4-Cyano-N-(4-{3-[1-(4-fluoro-phenyl)-ethyl]-thioureido}-phenyl)-benzamide]
- IC50 [1]: 1.5 µg/mL (≈ 3.58 µM)
- IC50 [3]: > 10 µg/mL

Structure (SMILES): CC(NC(=S)Nc1ccc(NC(=O)c2ccccc2F)cc1)c1ccc(Br)cc1 (stereo not drawn) [Example 1102]
- IC50 (ug/ml) VZV [1]: 0.2 µg/mL (≈ 0.423 µM)
- IC50 ug/ml HCMV [2]: 1.7 µg/mL (≈ 3.6 µM)

Structure (SMILES): C[C@H](NC(=S)Nc1ccc(NC(=O)c2ccc(F)cc2)cc1)c1ccc(Br)cc1 [Example 1103]
- IC50 (ug/ml) VZV [1]: 0.47 µg/mL (≈ 0.995 µM)
- IC50 ug/ml HCMV [2]: 3.4 µg/mL (≈ 7.2 µM)

Structure (SMILES): COc1ccccc1C(=O)Nc1ccc(NC(=S)N[C@@H](C)c2ccc(Br)cc2)cc1 [Example 1104]
- IC50 (ug/ml) VZV [1]: 0.09 µg/mL (≈ 0.186 µM)
- IC50 ug/ml HCMV [2]: 4.9 µg/mL (≈ 10.1 µM)

Structure (SMILES): COc1ccccc1C(=O)Nc1ccc(NC(=S)N[C@H](C)c2ccc(Br)cc2)cc1 [Example 1105]
- IC50 (ug/ml) VZV [1]: >7.5 µg/mL
- IC50 ug/ml HCMV [2]: 2.5 µg/mL (≈ 5.16 µM)
